Experimental data: US8598200B2, “KAT II inhibitors” (Pfizer Inc., priority 2010, dated 2013)

Target: human KAT II (hKAT II) enzyme (Homo sapiens (Human), UniProt Q8N5Z0)
Assay: KAT II Inhibition Spectra Assay
Assay type: biochemical
Conditions: decrease in OD370, L-kynurenine substrate, 37° C. for 15-20 h; values marked ^1 are the average of 2 IC50 determinations; read-out: KATII IC50 (nM; single determination unless otherwise indicated)
Experimental: Formation of kynurenic acid (KYNA) is indirectly assessed by a decrease in light absorbance at 370 nm (OD370) as the L-kynurenine (KYN) substrate is converted by the human KAT II (hKAT II) enzyme into KYNA. An inhibitor would therefore inhibit the decrease in OD370.
The protocol was performed by placing the following reagents into a Costar 384 well black plate (30 μL total assay volume/well): • 10 μL of 3× concentrated compound; • 10 μL of 3× concentrated substrate mix (BGG (Sigma G-5009); 3 mM L-Kynurenine in 150 mM Tris Acetate (Sigma K3750); 3 mM α-ketoglutaric acid in 150 mM Tris Acetate (Sigma K2010); and 210 μM pyridoxal 5-phosphate (PLP) in 150 mM Tris Acetate (Sigma 9255)); and • 10 μL of 3× concentrated enzyme (15 nM enzyme in 150 mM Tris Acetate with 0.3% bovine serum).
Plates were sealed and incubated at 37° C. for 15-20 h before reading OD370 on a SpectraMax Plus plate reader. IC50s were generated by comparing the efficacy of compounds across a concentration range to inhibit a reduction in the OD370 value relative to assay wells with DMSO added in place of concentrated compound. Biological data for the Examples may be found in Table 2.

Chain of human KAT II (hKAT II) enzyme (Q8N5Z0 30-425): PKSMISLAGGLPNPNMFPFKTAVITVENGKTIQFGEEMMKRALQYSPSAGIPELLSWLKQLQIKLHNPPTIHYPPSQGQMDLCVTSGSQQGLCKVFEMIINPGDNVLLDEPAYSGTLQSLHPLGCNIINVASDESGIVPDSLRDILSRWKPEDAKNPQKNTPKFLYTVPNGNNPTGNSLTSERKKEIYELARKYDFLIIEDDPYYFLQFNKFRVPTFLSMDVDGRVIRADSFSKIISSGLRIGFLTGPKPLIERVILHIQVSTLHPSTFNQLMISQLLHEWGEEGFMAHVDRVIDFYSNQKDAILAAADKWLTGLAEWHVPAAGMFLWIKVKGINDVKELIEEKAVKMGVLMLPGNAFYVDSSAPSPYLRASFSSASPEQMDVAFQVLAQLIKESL

N[C@H]1Cc2cn(C3CCC3)nc2N(O)C1=O [Example 19, (5S)-5-amino-2-cyclobutyl-7-hydroxy-2,4,5,7-tetrahydro-6H-pyrazolo[3,4-b]pyridin-6-one]
IC50: 81.3 nM

Cc1c2c(nn1Cc1ccccc1)N(O)C(=O)[C@@H](N)C2 [Example 12, (5S)-5-amino-2-benzyl-7-hydroxy-3-methyl-2,4,5,7-tetrahydro-6H-pyrazolo[3,4-b]pyridin-6-one]
IC50: 81.6 nM

Cn1nc2c(c1Cc1ccc(C(F)(F)F)cc1)C[C@H](N)C(=O)N2O [Example 27, (5S)-5-amino-7-hydroxy-2-methyl-3-[4-(trifluoromethyl)benzyl]-2,4,5,7-tetrahydro-6H-pyrazolo[3,4-6]pyridin-6-one]
IC50: 37 nM

Cn1nc(Cc2ccccc2)c2c1N(O)C(=O)[C@@H](N)C2 [Example 2, (5S)-5-Amino-3-benzyl-7-hydroxy-1-methyl-1,4,5,7-tetrahydro-6H-pyrazolo[3,4-b]pyridin-6-one]
IC50: 63.7 nM

N[C@H]1Cc2cn(-c3ccccc3)nc2N(O)C1=O [Example 14, (5S)-5-amino-7-hydroxy-2-phenyl-2,4,5,7-tetrahydro-6H-pyrazolo[3,4-b]pyridin-6-one]
IC50: 24.3 nM

N[C@H]1Cc2cn(-c3cccc(C(F)(F)F)c3)nc2N(O)C1=O [Example 7, (5S)-5-Amino-7-hydroxy-2-[3-(trifluoromethyl)phenyl]-2,4,5,7-tetrahydro-6H-pyrazolo[3,4-b]pyridin-6-one]
IC50: 74.7 nM

N[C@H]1Cc2cn(Cc3cccc4ccccc34)nc2N(O)C1=O [Example 8, (5S)-5-amino-7-hydroxy-2-(1-naphthylmethyl)-2,4,5,7-tetrahydro-6H-pyrazolo[3,4-b]pyridin-6-one]
IC50: 36 nM

COc1ccc(Cn2cc3c(n2)N(O)C(=O)[C@@H](N)C3)cc1 [Example 15, (5S)-5-amino-7-hydroxy-2-(4-methoxybenzyl)-2,4,5,7-tetrahydro-6H-pyrazolo[3,4-b]pyridin-6-one]
IC50: 28.3 nM

Cn1nc2c(c1Cc1ccccc1)C[C@H](N)C(=O)N2O [Example 3, (5S)-5-Amino-3-benzyl-7-hydroxy-2-methyl-2,4,5,7-tetrahydro-6H-pyrazolo[3,4-b]pyridin-6-one]
IC50: 11.5 nM

Cn1nc2c(c1Cc1ccccc1C(F)(F)F)C[C@H](N)C(=O)N2O [Example 26, (5S)-5-amino-7-hydroxy-2-methyl-3-[2-(trifluoromethyl)benzyl]-2.4,5,7-tetrahydro-6H-pyrazolo[3,4-b] pyridin-6-one]
IC50: 40.7 nM

N[C@H]1Cc2cn(-c3ccc(C(F)(F)F)cc3)nc2N(O)C1=O [Example 29, (5S)-5-amino-7-hydroxy-2-[4-(trifluoromethyl)phenyl]-2,4,5,7-tetrahydro-6H-pyrazolo[3,4-b]pyridin-6-one]
IC50: 31.6 nM

COc1ccccc1Cn1cc2c(n1)N(O)C(=O)[C@@H](N)C2 [Example 10, (5S)-5-amino-7-hydroxy-2-(2-methoxybenzyl)-2,4,5,7-tetrahydro-6H-pyrazolo[3,4-b]pyridin-6-one]
IC50: 50.2 nM

N[C@H]1Cc2cn(Cc3ccc(OC(F)(F)F)cc3)nc2N(O)C1=O [Example 6, (5S)-5-Amino-7-hydroxy-2-[4-(trifluoromethoxy)benzyl]-2,4,5,7-tetrahydro-6H-pyrazolo[3,4-b]pyridin-6-one]
IC50: 43.6 nM

N[C@H]1Cc2cn(Cc3ccc4ccccc4c3)nc2N(O)C1=O [Example 9, (5S)-5-amino-7-hydroxy-2-(2-naphthylmethyl)-2,4,5,7-tetrahydro-6H-pyrazolo[3,4-b]pyridin-6-one]
IC50: 117 nM

Cn1nc2c(c1Cc1cccc(C(F)(F)F)c1)C[C@H](N)C(=O)N2O [Example 25, (5S)-5-amino-7-hydroxy-2-methyl-3-[3-(trifluoromethyl)benzyl]-2,4,5,7-tetrahydro-6H-pyrazolo[3,4-b]pyridin-6-one]
IC50: 42.2 nM

CC(C)n1cc2c(n1)N(O)C(=O)[C@@H](N)C2 [Example 20, (5S)-5-amino-7-hydroxy-2-isopropyl-2,4,5,7-tetrahydro-6H-pyrazolo[3,4-b]pyridin-6-one]
IC50: 153 nM

N[C@H]1Cc2cn(Cc3ccccc3)nc2N(O)C1=O [Example 1, (5S)-5-Amino-2-benzyl-7-hydroxy-2,4,5,7-tetrahydro-6H-pyrazolo[3,4-b]pyridin-6-one]
IC50: 59.4 nM

Cc1c2c(nn1-c1ccccc1)C[C@H](N)C(=O)N2O [Example 17, (6S)-6-amino-4-hydroxy-3-methyl-2-phenyl-2,4,6,7-tetrahydro-5H-pyrazolo[4,3-b]pyridin-5-one]
IC50: 2010 nM

N[C@H]1Cc2c(cnn2Cc2ccccc2)N(O)C1=O [Example 4, (6S)-6-Amino-1-benzyl-4-hydroxy-1,4,6,7-tetrahydro-5H-pyrazolo[4,3-b]pyridin-5-one]
IC50: 22.5 nM

Cn1ncc2c1N(O)C(=O)[C@@H](N)C2 [Example 18, (5S)-5-amino-7-hydroxy-1-methyl-1,4,5,7-tetrahydro-6H-pyrazolo[3,4-b]pyridin-6-one]
IC50: 329 nM

N[C@H]1Cc2c(c(C(F)(F)F)nn2Cc2ccccc2)N(O)C1=O [Example 5, (6S)-6-Amino-1-benzyl-4-hydroxy-3-(trifluoromethyl)-1,4,6,7-tetrahydro-5H-pyrazolo[4,3-b]pyridin-5-one]
IC50: 42.7 nM

COc1ccc(Cc2nn(C)c3c2C[C@H](N)C(=O)N3O)cc1 [Example 21]
IC50: 440 nM

CCn1nc2c(c1Cc1ccccc1)C[C@H](N)C(=O)N2O [Example 23, (5S)-5-amino-3-benzyl-2-ethyl-7-hydroxy-2.4,5,7-tetrahydro-6H-pyrazolo[3,4-b]pyridin-6-one]
IC50: 24.3 nM

COc1cccc(Cn2cc3c(n2)N(O)C(=O)[C@@H](N)C3)c1 [Example 11, (5S)-5-amino-7-hydroxy-2-(3-methoxybenzyl)-2,4,5,7-tetrahydro-6H-pyrazolo[3,4-b]pyridin-6-one]
IC50: 8.93 nM

CC(C)n1nc2c(c1Cc1ccccc1)C[C@H](N)C(=O)N2O [Example 24, (5S)-5-amino-3-benzyl-7-hydroxy-2-isopropyl-2,4,5,7-tetrahydro-6H-pyrazolo[3,4-b]pyridin-6-one]
IC50: 63 nM

N[C@H]1Cc2nn(Cc3ccccc3)cc2N(O)C1=O [Example 13, (6S)-6-amino-2-benzyl-4-hydroxy-2,4,6,7-tetrahydro-5H-pyrazolo[4,3-b]pyridin-5-one]
IC50: 182 nM

N[C@H]1Cc2cn(-c3ccccc3C(F)(F)F)nc2N(O)C1=O [Example 28, (5S)-5-amino-7-hydroxy-2-[2-(trifluoromethyl)phenyl]-2,4,5,7-tetrahydro-6H-pyrazolo[3,4-b]pyridin-6-one]
IC50: 38.8 nM

COc1cccc(Cc2nn(C)c3c2C[C@H](N)C(=O)N3O)c1 [Example 22, (5S)-5-amino-7-hydroxy-3-(3-methoxybenzyl)-1-methyl-1,4,5,7-tetrahydro-6H-pyrazolo[3,4-b]pyridin-6-one]
IC50: 65.6 nM
